From ChEMBL document CHEMBL1156829 (Proc Natl Acad Sci U S A, 2008)

How the values were obtained:
Plasmodium falciparum [1] = assay: NOVARTIS: Inhibition of Plasmodium falciparum 3D7 (drug-susceptible) proliferation in erythrocyte-based infection assay; assay type: functional, organism-based; conditions: Plasmodium falciparum, 3D7
Plasmodium falciparum [2] = assay: NOVARTIS: Inhibition of Plasmodium falciparum W2 (drug-resistant) proliferation in erythrocyte-based infection assay; assay type: functional, organism-based; conditions: Plasmodium falciparum, W2; read-out: EC50
[3] = NOVARTIS: Cytotoxicity against human hepatocellular carcinoma cell line (Huh7); assay type: toxicity, cell-based, Huh-7; conditions: Huh7 cells (hepatocellular carcinoma cell line)

Compound | EC50 (Plasmodium falciparum [1]) [nM] | EC50 (Plasmodium falciparum [2]) [nM] | CC50 [3] [nM]
CCC(SC1=Nc2ccccc2C2=NC(C(C)C)C(=O)N12)C(=O)Nc1cccc(C)c1 (configuration not stated) | 7020 | 2400 | > 100000
COc1cccc(-c2ccc(O)c(CNC3CCN(Cc4ccccc4)CC3)c2)n1 | 376 | 163 | 5940
COc1ccc2[nH]c(SCC(=O)Nc3cccc(NC(=O)CSc4nc5cc(OC)ccc5[nH]4)n3)nc2c1 | 123 | 95.4 | > 51000
COc1cc(C2c3[nH]c4ccccc4c3C[C@@H]3C(=O)N(CCc4ccccc4)CC(=O)N23)cc(OC)c1OC (some centres not stated) | 497 | 161 | > 10800
CCCC(=O)N1CCN(C(=O)c2nc(-c3ccccc3)nc(CCC)c2C(=O)OCC)CC1C (configuration not stated) | 1200 | 774 | > 10000
CCn1c(SCCNC(=O)CC(C)C)nc(-c2ccccc2)c1-c1ccccc1 | > 1250 | > 922 | > 9920
c1cn2c(-c3ccc(N4CCOCC4)cc3)cnc2c(NCc2ccc3c(c2)OCO3)n1 | > 927 | > 1250 | > 10000
CC(C)c1nc(N2CCN(C(=S)NCc3ccccc3)CC2)c(C#N)c2c1COC(C)(C)C2 | 183 | 112 | > 100000
CC(=O)Nc1ccc2c(c1)C(=O)N(C(C(=O)NCC(=O)O)C1CC1)[C@@H](CCC(=O)O)C(=O)N2 (some centres not stated) | 1260 | 280 | > 10000
COc1ccc(C)cc1-n1c(-c2ccc(Cl)cc2)cc2c1CC(C)(C)CC2=O | 3.34 | > 145 | > 10000
O=C(Nc1ccc2c(c1)S(=O)(=O)c1cc(NC(=O)c3cccs3)ccc1-2)c1cccs1 | 1110 | > 1250 | > 10000
NCCCCCCNC(=S)Nc1ccccc1 | > 1410 | > 859 | > 10000
O=C(Nc1ccc(-c2cc(-c3ccccc3)nc(-c3ccc(NC(=O)c4cccc([N+](=O)[O-])c4)cc3)n2)cc1)c1cccc([N+](=O)[O-])c1 | 1340 | 1240 | > 10000
COc1cc2c(cc1OC)C1=NC(=O)C(C(C)C)N1C(SCc1csc(Cl)n1)=N2 (configuration not stated) | > 1420 | 31.6 | 14300
Cc1n(C)c2ccccc2[n+]1CC(=O)c1ccccc1 | 114 | 547 | > 100000
O=C(Nc1ccc(SC(F)(F)F)cc1)Nc1cccnc1N1CCC(C(F)(F)F)CC1 | 1770 | 1420 | 39700
COc1ccc(CCNc2nc(NCCCN3CCCCC3C)ncc2C(=O)NCc2ccccc2)cc1OC (configuration not stated) | 323 | < 16.1 | > 10000

Compound | EC50 (Plasmodium falciparum [1]) [nM] | EC50 (Plasmodium falciparum [2]) [nM] | CC50 [3] [nM]
COc1cncc(-c2cncc(N3CCN(c4ccncc4)CC3)n2)c1 | 80.4 | 94.7 | > 10000
Cc1cccc(CSc2nnc(C(Cc3ccccc3)NC(=O)C3CCCCC3)n2-c2ccc(Cl)cc2Cl)c1 (configuration not stated) | 1240 | 1430 | > 10000
COCCOC(=O)C1=C(C)NC2=C(C(=O)CC(c3ccc(OC)c(OC)c3)C2)C1c1ccccc1Cl (configuration not stated) | 50.4 | 13.2 | > 100000
CCCc1c2ccc(C)n2cc[n+]1CC(=O)c1ccc(OC)cc1 | 806 | 1230 | > 100000
Nc1nc(N)c2cc(S(=O)(=O)c3ccc4ccccc4c3)ccc2n1 | 97.3 | 1710 | 49500
Cc1ccc2c(c1)c(-c1ccccc1)c(-c1ccccc1)n2CC(O)CN1CCN(Cc2ccccc2)CC1 (configuration not stated) | 824 | 84.5 | > 100000
CCOC(=O)c1ccc2c(c1)[C@@H]1C=CC[C@@H]1[C@H](c1cccc(OC)c1OC)N2 | 471 | 31.8 | > 100000
CCCCC(=O)N(CCCC(C)Nc1cc(OC)cc2cccnc12)Cc1ccccc1OC (configuration not stated) | 348 | 35 | 1060
OC1CCCCC1C1(NC(=S)Nc2ccccc2)CCCCC1 (configuration not stated) | 211 | 153 | 22800
CCOc1cc(Br)cc(/C=C2\NC(=S)NC2=O)c1O | > 1250 | > 973 | > 10000
CCOC(=O)c1c(NC(=O)c2cccnc2)sc(C)c1CC | > 1090 | > 714 | > 10000
CN(C)c1ccc(/C=C/C(=O)NC(=O)c2ccccc2O)cc1 | 84.4 | 75.2 | > 10000
CN(CCCNc1ccnc2cc(Cl)ccc12)C(=O)C(Cl)Cl | 28.6 | 91.4 | > 14000
Cc1oc2c(cc(NS(=O)(=O)c3ccc(F)cc3)c3ccccc32)c1C(=O)OCc1ccccc1 | > 1430 | > 12500 | > 100000
COc1ccc(CCn2c(SCC(=O)N3CCN(c4ccccc4OC)CC3)nc3ccccc3c2=O)cc1OC | > 1250 | > 864 | > 10000
Cc1ccn2c(NC(C)(C)CC(C)(C)C)c(-c3ccccc3OC(=O)C34CC5CC(CC(C5)C3)C4)nc2c1 | 788 | 214 | > 10000
c1cc2cc3ccc(OCCN4CCCCC4)cc3nc2cc1OCCN1CCCCC1 | 348 | 772 | > 10000
